The source of these data is paper PMC6563694 (Angewandte Chemie (International Ed. in English), 2019).

The structures appear in SMILES notation.

Chain of mouse H3R (P58406 whole entry): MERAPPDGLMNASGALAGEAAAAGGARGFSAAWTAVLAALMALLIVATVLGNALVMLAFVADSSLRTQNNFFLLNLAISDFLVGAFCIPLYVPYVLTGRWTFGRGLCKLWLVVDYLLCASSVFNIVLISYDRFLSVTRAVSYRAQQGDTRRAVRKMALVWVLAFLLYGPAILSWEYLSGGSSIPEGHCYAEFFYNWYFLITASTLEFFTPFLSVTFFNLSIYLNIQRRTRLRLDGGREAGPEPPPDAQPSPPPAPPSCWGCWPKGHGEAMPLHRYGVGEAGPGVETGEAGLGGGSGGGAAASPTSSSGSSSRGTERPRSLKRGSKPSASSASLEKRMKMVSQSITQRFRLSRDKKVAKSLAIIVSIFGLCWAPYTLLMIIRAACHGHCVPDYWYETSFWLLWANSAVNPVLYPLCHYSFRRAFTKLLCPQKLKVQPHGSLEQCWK

In the first experiment the target is rat H3R (Rattus norvegicus, UniProt Q9QYN8). Description: receptor binding. The conditions noted are these: PSS cis.
Chain of rat H3R (Q9QYN8 whole entry): as the sequence (P58406 whole entry) above, with A15T, T286A, G290A, H387R, V389I counted along it
On to `c1ccc(/N=N\c2cccc(Cc3c[nH]cn3)c2)cc1` [compound 65, cis-65 (PSS cis)], for which the pKi entry is “high nM (trans) to low μM (PSS cis) binding affinities for both mouse and rat”.

The same experiment, now with this note: trans.
`c1ccc(/N=N/c2cccc(Cc3c[nH]cn3)c2)cc1` [compound 65, trans-65]: the pKi entry is “high nM (trans) to low μM (PSS cis) binding affinities for both mouse and rat”.

Another experiment addresses mouse H3R (Mus musculus, UniProt P58406). Briefly: receptor binding. The following applies: PSS cis.
Consider `c1ccc(/N=N\c2cccc(Cc3c[nH]cn3)c2)cc1` [compound 65, cis-65 (PSS cis)], for which the pKi result was “high nM (trans) to low μM (PSS cis) binding affinities for both mouse and rat”.

Still in this experiment, the particulars now being: trans.
For the molecule `c1ccc(/N=N/c2cccc(Cc3c[nH]cn3)c2)cc1` [compound 65, trans-65], the pKi entry is “high nM (trans) to low μM (PSS cis) binding affinities for both mouse and rat”.

In the next experiment the target is human histamine H3 receptor (hH3R) (Homo sapiens, UniProt Q9Y5N1). Briefly: [3H]-Nα-methylhistamine competition binding.
Chain of human histamine H3 receptor (hH3R) (Q9Y5N1 whole entry): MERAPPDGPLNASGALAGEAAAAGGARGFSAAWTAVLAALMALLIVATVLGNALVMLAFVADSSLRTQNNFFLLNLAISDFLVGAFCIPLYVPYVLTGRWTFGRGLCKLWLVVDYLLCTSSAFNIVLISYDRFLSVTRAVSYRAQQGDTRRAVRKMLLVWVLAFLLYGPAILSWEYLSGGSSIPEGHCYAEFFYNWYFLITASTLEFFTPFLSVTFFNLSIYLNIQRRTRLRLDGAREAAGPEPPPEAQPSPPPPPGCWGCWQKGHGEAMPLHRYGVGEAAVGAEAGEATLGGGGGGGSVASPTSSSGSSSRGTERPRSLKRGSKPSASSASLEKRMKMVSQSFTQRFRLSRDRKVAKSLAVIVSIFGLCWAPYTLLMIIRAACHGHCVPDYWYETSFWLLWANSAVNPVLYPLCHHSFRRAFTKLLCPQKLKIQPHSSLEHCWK
Conditions: not given
For `Cc1cccc(/N=N\c2cccc(Cc3c[nH]cn3)c2)c1` [compound 77, 77 cis (PSS cis)], the affinity, expressed as Ki, was 0.347 µM.

For `Fc1cccc(F)c1/N=N\c1cccc(Cc2c[nH]cn2)c1` [compound 69, 69 cis (PSS cis)], affinity was put at a Ki of 0.055 µM.

`Cc1ccccc1/N=N\c1cccc(Cc2c[nH]cn2)c1` [compound 76, 76 cis (PSS cis)]: the inhibition constant Ki (as a rule, a measure of affinity in units of concentration, obtained from inhibition or displacement) is 0.398 µM.

As for `Fc1cccc(/N=N\c2cccc(Cc3c[nH]cn3)c2)c1` [compound 67, 67 cis (PSS cis)], the affinity corresponds to a Ki of 0.038 µM.

Molecule `Clc1ccccc1/N=N\c1cccc(Cc2c[nH]cn2)c1` [compound 70, 70 cis (PSS cis)] gave a Ki of 0.141 µM.

On to `Clc1ccc(/N=N/c2cccc(Cc3c[nH]cn3)c2)cc1` [compound 71, 71 trans], for which the inhibition constant Ki is 0.174 µM.

Molecule `Fc1cccc(F)c1/N=N/c1cccc(Cc2c[nH]cn2)c1` [compound 69, 69 trans] showed an inhibitory constant (Ki) of 0.01 µM. This Ki is about 17-fold lower than that of the molecule before.

The molecule `Fc1ccccc1/N=N/c1cccc(Cc2c[nH]cn2)c1` [compound 66, 66 trans] showed an inhibitory constant (Ki) of 0.00525 µM.

As for `Fc1ccc(/N=N/c2cccc(Cc3c[nH]cn3)c2)cc1` [compound 68, 68 trans], the affinity corresponds to a Ki of 0.0204 µM.

`Cc1cc(Cc2c[nH]cn2)cc(/N=N\c2ccccc2)c1` [compound 74, 74 cis (PSS cis)] gave an inhibitory constant (Ki) of 7.41 µM.

`Cc1cccc(/N=N/c2cccc(Cc3c[nH]cn3)c2)c1` [compound 77, 77 trans] had an inhibitory constant (Ki) of 0.0407 µM.

For `Cc1ccc(/N=N\c2cccc(Cc3c[nH]cn3)c2)cc1` [compound 78, 78 cis (PSS cis)], the Ki is 1.95 µM.

Take `Cc1ccc(/N=N/c2cccc(Cc3c[nH]cn3)c2)cc1` [compound 78, 78 trans]: the Ki was 1.91 µM.

The molecule `Cc1cc(Cc2c[nH]cn2)cc(/N=N/c2ccccc2)c1` [compound 74, 74 trans] had a Ki of 1.78 µM.

`c1ccc(/N=N/c2cccc(Cc3c[nH]cn3)c2)cc1` [compound 65, trans-65] gave a Ki of 0.0038 µM.

As to `c1ccc(/N=N\c2cccc(Cc3c[nH]cn3)c2)cc1` [compound 65, cis-65 (PSS cis)], the Ki is 0.0324 µM.

Turning to `Cc1c(Cc2c[nH]cn2)cccc1/N=N\c1ccccc1` [compound 72, 72 cis (PSS cis)], the affinity corresponds to a Ki of 3.55 µM.

In turn, `Clc1ccc(/N=N\c2cccc(Cc3c[nH]cn3)c2)cc1` [compound 71, 71 cis (PSS cis)] showed a Ki of 1.05 µM.

Turning to `Fc1cccc(/N=N/c2cccc(Cc3c[nH]cn3)c2)c1` [compound 67, 67 trans], the Ki is 0.00447 µM.

Take `Fc1ccc(/N=N\c2cccc(Cc3c[nH]cn3)c2)cc1` [compound 68, 68 cis (PSS cis)]: the inhibition constant (Ki) is 0.309 µM.

In turn, `Cc1c(Cc2c[nH]cn2)cccc1/N=N/c1ccccc1` [compound 72, 72 trans] showed an inhibition constant (Ki) of 2.69 µM.

Take `Cc1ccccc1/N=N/c1cccc(Cc2c[nH]cn2)c1` [compound 76, 76 trans]: the inhibition constant (Ki) was 0.0191 µM.

`Fc1ccccc1/N=N\c1cccc(Cc2c[nH]cn2)c1` [compound 66, 66 cis (PSS cis)]: the inhibitory constant (Ki) is 0.0813 µM.

`Clc1ccccc1/N=N/c1cccc(Cc2c[nH]cn2)c1` [compound 70, 70 trans] showed a Ki of 0.0138 µM.

The same experiment, now with this note: kept in dark, >99 % trans.
As for `Fc1ccc(/N=N/c2ccccc2)cc1Cc1c[nH]cn1` [compound 79, 79 trans], the “pK i trans ± SEM” value is recorded as 7.81±0.07.

For `Cc1ccc(Cc2c[nH]cn2)cc1/N=N/c1ccccc1` [compound 75, 75 trans], the “pK i trans ± SEM” value is 7.15±0.03.

Regarding `Cc1ccc(/N=N/c2ccccc2)cc1Cc1c[nH]cn1` [compound 73, 73 trans], the “pK i trans ± SEM” value is given as 6.90±0.06.

With `Fc1ccc(Cc2c[nH]cn2)cc1/N=N/c1ccccc1` [compound 80, 80 trans], the “pK i trans ± SEM” value stood at 8.39±0.06.
